Values of other authors as cited in paper PMC9851200, “Multiparameter phenotypic screening for endogenous TFEB and TFE3 translocation identifies novel chemical series modulating lysosome function” (Autophagy, 2022).

Legend:
Design in all cases: method as in original PKIS2 published data
[1] = target: T1, kinases (KINOMEscan panel) (Homo sapiens, UniProt O00444); details: kinase PLK4; Published KINOMEscan; ref original PKIS2 published data; cited from earlier work
T1 sequence (O00444 1-970): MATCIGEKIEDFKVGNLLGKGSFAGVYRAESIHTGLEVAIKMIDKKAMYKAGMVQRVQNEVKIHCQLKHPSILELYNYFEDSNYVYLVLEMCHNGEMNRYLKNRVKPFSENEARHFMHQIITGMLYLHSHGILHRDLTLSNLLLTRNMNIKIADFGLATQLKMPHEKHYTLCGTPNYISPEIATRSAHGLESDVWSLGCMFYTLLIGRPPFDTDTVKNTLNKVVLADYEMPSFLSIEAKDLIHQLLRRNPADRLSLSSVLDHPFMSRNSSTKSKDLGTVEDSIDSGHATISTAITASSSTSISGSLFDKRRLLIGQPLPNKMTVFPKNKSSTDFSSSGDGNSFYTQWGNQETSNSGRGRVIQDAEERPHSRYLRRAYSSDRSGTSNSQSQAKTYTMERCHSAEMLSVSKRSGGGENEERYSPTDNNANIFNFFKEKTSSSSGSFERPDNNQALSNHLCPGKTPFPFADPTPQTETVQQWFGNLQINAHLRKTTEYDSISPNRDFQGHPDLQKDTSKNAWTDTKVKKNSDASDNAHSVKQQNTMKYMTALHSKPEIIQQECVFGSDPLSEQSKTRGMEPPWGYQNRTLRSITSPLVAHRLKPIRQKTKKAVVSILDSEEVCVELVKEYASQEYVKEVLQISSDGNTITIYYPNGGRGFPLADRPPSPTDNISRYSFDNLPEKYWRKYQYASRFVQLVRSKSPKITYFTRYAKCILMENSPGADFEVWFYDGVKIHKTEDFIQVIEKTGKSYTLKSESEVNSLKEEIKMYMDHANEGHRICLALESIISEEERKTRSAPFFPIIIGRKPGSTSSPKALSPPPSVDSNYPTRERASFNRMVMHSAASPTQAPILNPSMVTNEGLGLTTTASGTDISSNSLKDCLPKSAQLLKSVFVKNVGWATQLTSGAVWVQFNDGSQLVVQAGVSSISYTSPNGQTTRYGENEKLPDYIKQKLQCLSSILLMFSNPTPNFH

[2] = target: kinases (KINOMEscan panel) (Homo sapiens, UniProt O75716); details: kinase STK16; Published KINOMEscan; ref original PKIS2 published data; cited from earlier work
kinases (KINOMEscan panel) (Homo sapiens, UniProt O75716), sequence (O75716 whole entry): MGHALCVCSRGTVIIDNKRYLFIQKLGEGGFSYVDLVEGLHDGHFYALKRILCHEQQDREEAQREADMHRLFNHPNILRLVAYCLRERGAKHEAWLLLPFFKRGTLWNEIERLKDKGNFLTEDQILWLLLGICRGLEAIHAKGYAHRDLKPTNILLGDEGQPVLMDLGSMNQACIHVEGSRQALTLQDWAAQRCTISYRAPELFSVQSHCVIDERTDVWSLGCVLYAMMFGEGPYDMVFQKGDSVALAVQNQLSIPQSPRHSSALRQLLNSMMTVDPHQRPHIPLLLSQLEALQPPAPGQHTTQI

[3] = target: T2, kinases (KINOMEscan panel) (Homo sapiens, UniProt Q6PHR2); details: kinase ULK3; Published KINOMEscan; ref original PKIS2 published data; cited from earlier work
T2 sequence (Q6PHR2 1-472): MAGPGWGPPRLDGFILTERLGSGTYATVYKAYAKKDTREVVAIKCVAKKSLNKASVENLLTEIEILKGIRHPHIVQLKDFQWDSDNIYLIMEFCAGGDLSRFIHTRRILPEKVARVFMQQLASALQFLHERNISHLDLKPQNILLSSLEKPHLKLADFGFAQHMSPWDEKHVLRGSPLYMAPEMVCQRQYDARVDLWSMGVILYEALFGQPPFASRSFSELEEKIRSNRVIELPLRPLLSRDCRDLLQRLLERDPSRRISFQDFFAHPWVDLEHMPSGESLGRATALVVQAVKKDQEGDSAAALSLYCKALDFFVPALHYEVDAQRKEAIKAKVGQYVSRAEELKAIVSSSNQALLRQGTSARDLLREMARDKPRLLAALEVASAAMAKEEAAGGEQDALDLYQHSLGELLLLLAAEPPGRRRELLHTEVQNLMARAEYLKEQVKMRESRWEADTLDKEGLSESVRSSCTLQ

[4] = target: kinases (KINOMEscan panel) (Homo sapiens, UniProt Q86V86); details: kinase PIM3; Published KINOMEscan; ref original PKIS2 published data; cited from earlier work
[5] = target: T3, kinases (KINOMEscan panel) (Homo sapiens, UniProt Q99759); details: MAP3K3; Published KINOMEscan; ref original PKIS2 published data; cited from earlier work
T3 sequence (Q99759 1-626): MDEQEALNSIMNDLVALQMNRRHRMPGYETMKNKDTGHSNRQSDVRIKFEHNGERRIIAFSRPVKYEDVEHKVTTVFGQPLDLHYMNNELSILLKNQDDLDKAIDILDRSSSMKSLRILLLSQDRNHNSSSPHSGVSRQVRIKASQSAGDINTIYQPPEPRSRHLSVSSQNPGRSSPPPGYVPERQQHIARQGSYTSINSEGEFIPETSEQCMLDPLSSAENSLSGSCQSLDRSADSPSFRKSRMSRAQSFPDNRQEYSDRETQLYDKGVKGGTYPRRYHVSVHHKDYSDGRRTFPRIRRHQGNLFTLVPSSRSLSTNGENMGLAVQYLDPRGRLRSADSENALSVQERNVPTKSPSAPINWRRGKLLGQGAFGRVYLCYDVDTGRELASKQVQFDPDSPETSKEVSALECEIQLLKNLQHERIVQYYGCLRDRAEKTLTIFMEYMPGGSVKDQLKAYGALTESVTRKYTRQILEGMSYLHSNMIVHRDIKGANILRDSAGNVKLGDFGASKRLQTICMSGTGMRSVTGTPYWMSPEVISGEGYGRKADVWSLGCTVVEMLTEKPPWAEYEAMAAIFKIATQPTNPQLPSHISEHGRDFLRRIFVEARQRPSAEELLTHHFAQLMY

Structure (SMILES): Cc1cccc(-c2nc(Nc3ccncc3)c3ccccc3n2)n1 [NK215]
- KINOMEscan PLK4 [1]: 0
- KINOMEscan STK16 [2]: 7
- KINOMEscan ULK3 [3]: 8
- KINOMEscan PIM3 [4]: 0
- KINOMEscan MAP3K3 [5]: 0
